Measured values as given in ChEMBL document CHEMBL4316588, “Design, Synthesis, and Biological Evaluation of Novel DNA Gyrase-Inhibiting Spiropyrimidinetriones as Potent Antibiotics for Treatment of Infections Caused by Multidrug-Resistant Gram-Positive Bacteria” (J Med Chem, 2019).
Values after ≈ are worked out from the molar mass of the structure shown. Active and inactive are the calls of the source. No cut-off for these calls is given here.

Experiments:
Assay type in all cases: functional
[1] = tested on: Staphylococcus aureus; experiment: Antibacterial activity against methicillin-sensitive Staphylococcus aureus after 18 to 20 hrs by CLSI-protocol based broth microdilution method
[2] = tested on: Staphylococcus aureus; experiment: Antibacterial activity against methicillin-resistant Staphylococcus aureus after 18 to 20 hrs by CLSI-protocol based broth microdilution method
[3] = tested on: Staphylococcus epidermidis; experiment: Antibacterial activity against methicillin-sensitive Staphylococcus epidermidis after 18 to 20 hrs by CLSI-protocol based broth microdilution method
[4] = tested on: Staphylococcus epidermidis; experiment: Antibacterial activity against methicillin-resistant Staphylococcus epidermidis after 18 to 20 hrs by CLSI-protocol based broth microdilution method
[5] = tested on: Streptococcus pneumoniae; experiment: Antibacterial activity against penicillin-resistant Streptococcus pneumoniae after 18 to 20 hrs by CLSI-protocol based broth microdilution method
[6] = tested on: Streptococcus pyogenes; experiment: Antibacterial activity against Streptococcus pyogenes after 18 to 20 hrs by CLSI-protocol based broth microdilution method
[7] = Staphylococcus aureus, read-out: MIC
[8] = Streptococcus pyogenes, read-out: MIC

SMILES | MIC [1, 7] | MIC [2] | MIC [3] | MIC [4] | MIC [5] | MIC [6, 8] | MIC [1] | MIC [6]
C[C@@H]1CN2c3c(cc4c(N5C(=O)SCC56CC6)noc4c3F)CC3(C(=O)NC(=O)NC3=O)[C@H]2[C@H](C)O1 | 2 to 4 µg/mL (≈ 3.88 to 7.76 µM) | 0.5 to 8 µg/mL (≈ 0.97 to 15.5 µM) | 1 to 4 µg/mL (≈ 1.94 to 7.76 µM) | 2 to 4 µg/mL (≈ 3.88 to 7.76 µM) | 1 to 2 µg/mL (≈ 1.94 to 3.88 µM) | 4 µg/mL (≈ 7.76 µM) | – | –
C[C@@H]1CN2c3c(cc4c(N5CC6(CCCC6)OC5=O)noc4c3F)CC3(C(=O)NC(=O)NC3=O)[C@H]2[C@H](C)O1 | 0.125 to 0.25 µg/mL (≈ 0.237 to 0.474 µM) | 0.06 to 1 µg/mL (≈ 0.114 to 1.9 µM) | 0.06 to 0.25 µg/mL (≈ 0.114 to 0.474 µM) | 0.03 to 0.25 µg/mL (≈ 0.0569 to 0.474 µM) | 0.25 to 1 µg/mL (≈ 0.474 to 1.9 µM) | 0.25 to 0.5 µg/mL (≈ 0.474 to 0.948 µM) | – | –
C[C@@H]1CN2c3c(cc4c(N5C[C@H](COC(F)(F)F)SC5=O)noc4c3F)CC3(C(=O)NC(=O)NC3=O)[C@H]2[C@H](C)O1 | 0.06 to 1 µg/mL (≈ 0.102 to 1.7 µM) | – | – | – | 0.125 to 0.5 µg/mL (≈ 0.213 to 0.851 µM) | 0.125 to 0.25 µg/mL (≈ 0.213 to 0.426 µM) | – | –
C[C@@H]1CN2c3c(cc4c(N5C(=O)OC[C@@H]5C)noc4c3F)CC3(C(=O)NC(=S)NC3=O)[C@H]2[C@H](C)O1 | – | inactive | inactive | inactive | inactive | – | inactive | inactive
C[C@@H]1CN2c3c(cc4c(N5CCSCC5)ncnc4c3F)CC3(C(=O)NC(=O)NC3=O)[C@H]2[C@H](C)O1 (racemic) | – | inactive | inactive | inactive | inactive | – | inactive | inactive
C[C@@H]1CN2c3c(cc4c(N5CC6(COC6)OC5=O)noc4c3F)CC3(C(=O)NC(=O)NC3=O)[C@H]2[C@H](C)O1 | 0.125 to 0.25 µg/mL (≈ 0.243 to 0.485 µM) | 0.03 to 1 µg/mL (≈ 0.0582 to 1.94 µM) | 0.03 to 0.125 µg/mL (≈ 0.0582 to 0.243 µM) | 0.03 to 0.25 µg/mL (≈ 0.0582 to 0.485 µM) | 0.125 to 0.5 µg/mL (≈ 0.243 to 0.97 µM) | 0.125 to 0.25 µg/mL (≈ 0.243 to 0.485 µM) | – | –
C[C@@H]1CN2c3c(cc4c(N5C[C@H](CN=[N+]=[N-])SC5=O)noc4c3F)CC3(C(=O)NC(=O)NC3=O)[C@H]2[C@H](C)O1 | 0.06 to 0.25 µg/mL (≈ 0.11 to 0.459 µM) | 0.25 to 0.5 µg/mL (≈ 0.459 to 0.918 µM) | 0.03 to 0.25 µg/mL (≈ 0.0551 to 0.459 µM) | 0.03 to 0.125 µg/mL (≈ 0.0551 to 0.23 µM) | 0.125 µg/mL (≈ 0.23 µM) | 0.125 to 1 µg/mL (≈ 0.23 to 1.84 µM) | – | –
C[C@@H]1CN2c3c(cc4c(N5C[C@H](CS(C)(=O)=O)SC5=O)noc4c3F)CC3(C(=O)NC(=O)NC3=O)[C@H]2[C@H](C)O1 | 2 to 4 µg/mL (≈ 3.44 to 6.88 µM) | 1 to 8 µg/mL (≈ 1.72 to 13.8 µM) | 0.25 to 1 µg/mL (≈ 0.43 to 1.72 µM) | 0.25 to 1 µg/mL (≈ 0.43 to 1.72 µM) | 0.5 to 4 µg/mL (≈ 0.86 to 6.88 µM) | 0.5 to 1 µg/mL (≈ 0.86 to 1.72 µM) | – | –
CC[C@@H]1CSC(=O)N1c1noc2c(F)c3c(cc12)CC1(C(=O)NC(=O)NC1=O)[C@H]1[C@H](C)O[C@H](C)CN31 | 0.5 to 1 µg/mL (≈ 0.966 to 1.93 µM) | 0.5 to 2 µg/mL (≈ 0.966 to 3.86 µM) | 1 µg/mL (≈ 1.93 µM) | 0.25 to 2 µg/mL (≈ 0.483 to 3.86 µM) | 2 µg/mL (≈ 3.86 µM) | 4 µg/mL (≈ 7.73 µM) | – | –
CC[C@H]1CSC(=O)N1c1noc2c(F)c3c(cc12)CC1(C(=O)NC(=O)NC1=O)[C@H]1[C@H](C)O[C@H](C)CN31 | 0.25 to 0.5 µg/mL (≈ 0.483 to 0.966 µM) | 0.5 to 1 µg/mL (≈ 0.966 to 1.93 µM) | 0.5 to 1 µg/mL (≈ 0.966 to 1.93 µM) | 0.25 to 0.5 µg/mL (≈ 0.483 to 0.966 µM) | 0.5 to 1 µg/mL (≈ 0.966 to 1.93 µM) | 0.5 to 1 µg/mL (≈ 0.966 to 1.93 µM) | – | –
C[C@@H]1CN2c3c(cc4c(N5CC6(CC6)OC5=O)noc4c3F)CC3(C(=O)NC(=O)NC3=O)[C@H]2[C@H](C)O1 (racemic) | – | 0.03 to 0.125 µg/mL (≈ 0.0601 to 0.25 µM) | ≤ 0.03 µg/mL | ≤ 0.03 µg/mL | ≤ 0.03 µg/mL | ≤ 0.03 µg/mL | <0.03 µg/mL | –
C[C@@H]1CN2c3c(cc4c(N5CCCOC5=O)noc4c3F)CC3(C(=O)NC(=O)NC3=O)[C@H]2[C@H](C)O1 (racemic) | 4 to 8 µg/mL (≈ 8.21 to 16.4 µM) | 1 to 64 µg/mL (≈ 2.05 to 131 µM) | 4 µg/mL (≈ 8.21 µM) | 1 to 8 µg/mL (≈ 2.05 to 16.4 µM) | 4 to 8 µg/mL (≈ 8.21 to 16.4 µM) | 4 µg/mL (≈ 8.21 µM) | – | –
C[C@@H]1CN2c3c(cc4c(N5C[C@H](CO)SC5=O)noc4c3F)CC3(C(=O)NC(=O)NC3=O)[C@H]2[C@H](C)O1 | 1 µg/mL (≈ 1.92 µM) | 0.5 to 4 µg/mL (≈ 0.962 to 7.7 µM) | 0.06 to 0.25 µg/mL (≈ 0.115 to 0.481 µM) | 0.03 to 0.125 µg/mL (≈ 0.0577 to 0.241 µM) | 0.125 to 0.25 µg/mL (≈ 0.241 to 0.481 µM) | 0.125 to 0.5 µg/mL (≈ 0.241 to 0.962 µM) | – | –
C[C@@H]1CN2c3c(cc4c(N5CCOCC5=O)ncnc4c3F)CC3(C(=O)NC(=O)NC3=O)[C@H]2[C@H](C)O1 (racemic) | – | inactive | inactive | inactive | inactive | – | inactive | inactive
Cc1ncnc2c(F)c3c(cc12)CC1(C(=O)NC(=O)NC1=O)[C@H]1[C@H](C)O[C@H](C)CN31 (racemic) | – | inactive | inactive | inactive | inactive | – | inactive | inactive
C[C@@H]1CN2c3c(cc4c(N5C(=O)OCC5(C)C)noc4c3F)CC3(C(=O)NC(=O)NC3=O)[C@H]2[C@H](C)O1 (racemic) | 16 µg/mL (≈ 31.9 µM) | 16 µg/mL (≈ 31.9 µM) | 16 µg/mL (≈ 31.9 µM) | 16 µg/mL (≈ 31.9 µM) | 16 µg/mL (≈ 31.9 µM) | 16 µg/mL (≈ 31.9 µM) | – | –
C[C@@H]1CN2c3c(cc4c(-n5cncn5)ncnc4c3F)CC3(C(=O)NC(=O)NC3=O)[C@H]2[C@H](C)O1 (racemic) | – | inactive | inactive | inactive | inactive | – | inactive | inactive
C[C@@H]1CN2c3c(cc4c(N5CCOCC5)ncnc4c3F)CC3(C(=O)NC(=O)NC3=O)[C@H]2[C@H](C)O1 (racemic) | – | inactive | inactive | inactive | inactive | – | inactive | inactive
C[C@@H]1CN2c3c(cc4c(N5C[C@H](C)SC5=O)noc4c3C#N)CC3(C(=O)NC(=O)NC3=O)[C@H]2[C@H](C)O1 | 0.06 to 1 µg/mL (≈ 0.118 to 1.96 µM) | – | 0.06 to 0.125 µg/mL (≈ 0.118 to 0.245 µM) | 0.06 to 0.5 µg/mL (≈ 0.118 to 0.979 µM) | 0.125 to 0.25 µg/mL (≈ 0.245 to 0.49 µM) | 0.125 to 0.5 µg/mL (≈ 0.245 to 0.979 µM) | – | –
CC[C@@H]1CN(c2noc3c(F)c4c(cc23)CC2(C(=O)NC(=O)NC2=O)[C@H]2[C@H](C)O[C@H](C)CN42)C(=O)S1 | – | – | < 0.03 µg/mL | < 0.03 µg/mL | – | < 0.03 µg/mL | – | –
C[C@@H]1CN2c3c(cc4c(N5C(=O)OC[C@@H]5C)noc4c3F)CC3(C(=O)NS(=O)(=O)NC3=O)[C@H]2[C@H](C)O1 | – | inactive | inactive | inactive | inactive | – | inactive | inactive
C[C@@H]1CN2c3c(cc4c(N5C[C@H](CF)SC5=O)noc4c3F)CC3(C(=O)NC(=O)NC3=O)[C@H]2[C@H](C)O1 | 0.06 to 0.125 µg/mL (≈ 0.115 to 0.24 µM) | – | < 0.03 µg/mL | – | 0.06 to 0.25 µg/mL (≈ 0.115 to 0.479 µM) | – | – | –
C[C@@H]1CN2c3c(cc4c(N5C(=O)S[C@H]6CCC[C@H]65)noc4c3F)CC3(C(=O)NC(=O)NC3=O)[C@H]2[C@H](C)O1 | 0.25 to 0.5 µg/mL (≈ 0.472 to 0.944 µM) | 0.25 to 1 µg/mL (≈ 0.472 to 1.89 µM) | 0.5 µg/mL (≈ 0.944 µM) | 0.5 µg/mL (≈ 0.944 µM) | 0.25 to 0.5 µg/mL (≈ 0.472 to 0.944 µM) | 0.125 µg/mL (≈ 0.236 µM) | – | –
C[C@@H]1CN2c3c(cc4c(N5C(=O)OCC56CC6)noc4c3F)CC3(C(=O)NC(=O)NC3=O)[C@H]2[C@H](C)O1 (racemic) | 1 µg/mL (≈ 2 µM) | 1 to 4 µg/mL (≈ 2 to 8.01 µM) | 1 to 2 µg/mL (≈ 2 to 4 µM) | 0.5 to 2 µg/mL (≈ 1 to 4 µM) | 2 µg/mL (≈ 4 µM) | 1 to 2 µg/mL (≈ 2 to 4 µM) | – | –
C[C@@H]1CN2c3c(cc4c(N5CCOC5=S)noc4c3F)CC3(C(=O)NC(=O)NC3=O)[C@H]2[C@H](C)O1 (racemic) | 0.5 to 1 µg/mL (≈ 1.02 to 2.04 µM) | 1 to 2 µg/mL (≈ 2.04 to 4.09 µM) | 0.5 to 2 µg/mL (≈ 1.02 to 4.09 µM) | 1 µg/mL (≈ 2.04 µM) | 1 to 2 µg/mL (≈ 2.04 to 4.09 µM) | 2 µg/mL (≈ 4.09 µM) | – | –
C[C@H]1COc2c(N3CCN(C)CC3)c(F)cc3c(=O)c(C(=O)O)cn1c23.C[C@H]1COc2c(N3CCN(C)CC3)c(F)cc3c(=O)c(C(=O)O)cn1c23.O [LEVOFLOXACIN] | 4 to 64 µg/mL | 16 to 64 µg/mL | 0.5 to 4 µg/mL | 4 to 64 µg/mL | – | 0.5 to 1 µg/mL | – | –
C[C@@H]1CN2c3c(cc4c(N5C(=O)S[C@@H]6CCC[C@@H]65)noc4c3F)CC3(C(=O)NC(=O)NC3=O)[C@H]2[C@H](C)O1 | – | – | < 0.03 µg/mL | – | < 0.03 µg/mL | < 0.03 µg/mL | – | –
C[C@@H]1CN2c3c(cc4c(N5C(=O)S[C@@H]6CCCC[C@@H]65)noc4c3F)CC3(C(=O)NC(=O)NC3=O)[C@H]2[C@H](C)O1 | 0.5 to 1 µg/mL (≈ 0.92 to 1.84 µM) | 0.5 to 2 µg/mL (≈ 0.92 to 3.68 µM) | 0.25 to 0.5 µg/mL (≈ 0.46 to 0.92 µM) | 0.125 to 0.5 µg/mL (≈ 0.23 to 0.92 µM) | < 0.03 µg/mL | – | – | –
